Measured values as given in patent publication US5939094A (priority 1996, dated 1999).
Where two headings read alike, the source gives them in different places.

How the values were obtained:
[1] = Description: Human skin samples were obtained from white female patients undergoing breast reduction surgery and prepared for in vitro permeation studies. Samples were stratum corneum from breasts of patients (Sample A) and (Samples B & C). A 2.0 cm^2 section of the skin tissue was placed in a Franz cell holder and maintained under phosphate buffered saline (PBS: 0.01M phosphate, 0.9% NaCl, pH 6.0) until testing. PBS (6.8 to 7.3 ml) was placed on the receptor side of the Franz cell. […] The cell was incubated at 35±1° C. A 250 μl sample was taken from the receptor medium at the following times: 0, 1/2, 1, 2, 4, and 6 hours. An equal volume of PBS was replaced each time a sample was withdrawn.
Samples were pre-filtered (0.45 μm) prior to injection. Samples (50 μl) were injected on an Altima (Alltech Associates) C18 column (15 cm×4.3 mm) with guard column. The mobile phase consisted of a 60:40 mixture of 5 mM sodium dodecylsulfate in 1 mM NH4 PO4 buffer, pH 3.0 and acetonitrile.

[2] = administered in a cream; cited from earlier work
skin = details: rabbit, in vivo, 0.5 mg/kg
in vivo = details: rabbit, 0.5 mg/kg; for AUC: AUC (area under the concentration vs time curve); for MRT: MRT (mean residence time)
[3] = rabbit
[4] = cited from earlier work
[5] = man, cited from earlier work
[6] = emulsions with apomorphine HCl and acrylic acid polymer gels, pH 7.6
Parkinson's disease = details: chronic oral levodopa, after initial 3-6 years; cited from earlier work
[7] = sc, model-dependent, subcutaneous, n=6, mean
[8] = topical or ocular, model-independent
[9] = in vivo, topical or ocular, 0.5 mg/kg
[10] = subcutaneous, 0.5 mg/kg, n=6, mean

CN1CCc2cccc3c2[C@H]1Cc1ccc(O)c(O)c1-3 [Apomorphine, apomorphine]
FLUX, AVERAGE [1]: 1.61 μg/cm^2 /hr
In vitro transdermal permeation, TIME 0 hours [1]: 0
In vitro transdermal permeation, TIME 0 hours, AVERAGE [1]: 0
In vitro transdermal permeation, TIME 0.5 hours, AVERAGE [1]: 0.44
In vitro transdermal permeation, TIME 1 hour, AVERAGE [1]: 2.05
In vitro transdermal permeation, TIME 2 hours, AVERAGE [1]: 2.93
In vitro transdermal permeation, TIME 4 hours, AVERAGE [1]: 7.03
In vitro transdermal permeation, TIME 6 hours, AVERAGE [1]: 6.30
plasma levels of apomorphine [2]: No detectable plasma levels
local adverse effect (skin): No local adverse effect
CL/F (in vivo; sc): 31 ± 5 mL/min/kg
Cmax (in vivo; sc): 331 ± 46 ng/mL
Tmax (in vivo; sc): 25.8 min
concentration at 4 h (in vivo; sc): 3 ± 1 ng/mL
k el (in vivo; sc): 0.00035 s⁻¹
AUC (in vivo; [7]): 309 ng·h/mL
AUC (in vivo; sc, model-independent): 297 ng·h/mL
MRT (in vivo; [7]): 52 min
MRT (in vivo; sc, model-independent): 50 min
Vd/F (in vivo; sc, Vd (apparent volume of distribution)): 1.45 ± 0.12 L/kg
Vd/F (in vivo; sc, Vdss, model-dependent): 1.1 ± 0.3 L/kg
CL/F (in vivo; topical or ocular): 37 ± 1 mL/min/kg
Cmax (in vivo; topical or ocular): 56 ± 12 ng/mL
Tmax (in vivo; topical or ocular): 29.4 min
k el (in vivo; topical or ocular): 0.000233 s⁻¹
AUC (in vivo; [8]): 104 ng·h/mL
MRT (in vivo; [8]): 168 min
Vd/F (in vivo; topical or ocular, Vd (apparent volume of distribution)): 2.72 ± 0.36 L/kg
Time for absorption of 10% of the drug ([3]; in vivo): 11.4 ± 3.4 min
Time for absorption of 50% of the drug ([3]; in vivo): 105.7 ± 23.9 min
absorption of the drug after percutaneous administration ([3]; in vivo, 0.5 mg/kg): absorption of the drug in all tested animals
bioequivalence (F) of percutaneous route vs subcutaneous administration ([3]; in vivo, 0.5 mg/kg): 35%
duration of the first, rapid absorption phase ([3]; in vivo, 0.5 mg/kg): 1 h
plasma concentration between the fourth and the fifth hour ([3]; in vivo, 0.5 mg/kg): an increase in the plasma concentration
plasma levels after removal of the gel ([3]; in vivo, 0.5 mg/kg): decreased
time until which absorption persisted ([3]; in vivo, 0.5 mg/kg): 450 min
Time for absorption of 10% of the drug ([3]; in vivo, sc): 4.0 ± 0.7 min
Time for absorption of 50% of the drug ([3]; in vivo, sc): 19.9 ± 2.9 min
absorption of the available amount of the drug after 150 minutes ([3]; in vivo, sc, 0.5 mg/kg): practically complete
k12 (transfer rate constant) ([3]; in vivo, sc, 0.5 mg/kg): 0.005 L/min
k13 (transfer rate constant) ([3]; in vivo, sc, 0.5 mg/kg): 0.057 L/min
k21 (transfer rate constant) ([3]; in vivo, sc, 0.5 mg/kg): 0.027 L/min
ka (exponent of the fitted function) ([3]; in vivo, sc, 0.5 mg/kg): 0.088 L/min
tmax (time to peak plasma concentration) ([3]; in vivo, sc, 0.5 mg/kg): 25.8 ± 4.9 min
α (exponent of the fitted function) ([3]; in vivo, sc, 0.5 mg/kg): 0.044 L/min
plasma level plateau [3, 9]: 10 to 15 ng/mL
stable mean plasma level after the second hour [3, 9]: 10 ng/mL
tmax (time to peak plasma concentration) [3, 9]: 29.4 ± 7.8 min
Cl, comparison of routes ([3]; subcutaneous vs percutaneous, 0.5 mg/kg): not different between the two routes
A (coefficient of the fitted function) [3, 10]: 712 ng/mL
B (coefficient of the fitted function) [3, 10]: 298 ng/mL
C0 (coefficient of the fitted function) [3, 10]: 1,010 ng/ml
duration of action ([4]; Parkinson's disease, movement disorders): short duration of action
adverse effects of oral or sublingual administration ([4]; oral or sublingual): stomatitis, and the development of buccal ulcers
breakdown in the liver ([4]; oral or sublingual): breakdown of the drug in the liver
Vd (mean) ([5]; i.v. injection): 2 L/kg
Vd (mean) ([5]; subcutaneous injection): 2 L/kg
tmax (range) ([5]; subcutaneous injection): 7 to 16 min

N[C@@H](CCC(=O)N[C@@H](CS)C(=O)NCC(=O)O)C(=O)O [glutathione]
antioxidant suitability for apomorphine HCl emulsions and gels [6]: acceptable antioxidant

N[C@@H](Cc1ccc(O)c(O)c1)C(=O)O [levodopa]
patients with movement abnormalities (Parkinson's disease): 40-60 % of patients
